Counter-ions that a name gives are not always drawn. Like-named read-outs stand apart in the source and are kept apart here.
Columns and labels:
Assay in all cases: Inhibitory effect on growth of human cancer cells (in vitro), WST-8
Format in all cases: cell-based
[1] = test system: human colorectal cancer HT-29 cells; conditions: 96 hours culture, read-out: IC50 (nM) HT29
Method: (§1) Each pyrrole compound of the present invention was studied for its effects on the growth of human non-small cell lung cancer A549 cells and human colorectal cancer HT-29 cells and HCT116 cells. The cells of each line were suspended in an RPMI1640 medium supplemented with 10% fetal bovine serum and inoculated at a cell density of 1000 cells/50 μL/well to a 96-well plate. After overnight culture, each compound diluted with a medium was added thereto at a concentration of 50 μL/well, and the cells were further cultured for 96 hours. After the completion of culture, WST-8 (Seikagaku Corp.) was added thereto at a concentration of 10 μL/well, and the cells were cultured at 37° C. for approximately 1 hour under 5% CO2 conditions, followed by measurement of absorbance at 450 nm.

[2] = test system: human colorectal cancer HCT116 cells; conditions: 96 hours culture
Method: as §1

[3] = test system: human non-small cell lung cancer A549 cells; conditions: 96 hours culture
Method: as §1

IC50 ([1]; Homo sapiens, HT-29, 96 h)	IC50 ([2]; Homo sapiens, HCT-116, 96 h)	IC50 ([3]; Homo sapiens, A549, 96 h)	IC50 [2]	IC50 ([1]; hydrochloride)	IC50 ([2]; hydrochloride)	IC50 ([3]; hydrochloride)	Compound
42 nM	48.4 nM	66.6 nM	–	–	–	–	CCc1cnc(-c2[nH]c(C)c(C(=O)c3cccc(Br)c3)c2C)o1 [Compound 272, (3-bromophenyl) (5-(5-ethyloxazol-2-yl)-2,4-dimethyl-1H-pyrrol-3-yl)methanone]
146 nM	45.2 nM	351 nM	–	–	–	–	Cc1[nH]c(-c2nnc(C3CC3)o2)c(C)c1C(=O)c1cccc(OCCN)c1 [Compound 253, (3-(2-aminoethoxy)phenyl)(5-(5-cyclopropyl-1,3,4-oxadiazol-2-yl)-2,4-dimethyl-1H-pyrrol-3-yl)methanone]
126 nM	–	359 nM	40.2 nM	–	–	–	CCn1nnc(-c2[nH]c(C)c(C(=O)c3cccc(OCCN)c3)c2C)n1 [Compound 165, (3-(2-aminoethoxy)phenyl)(5-(2-ethyl-2H-tetrazol-5-yl)-2,4-dimethyl-1H-pyrrol-3-yl)methanone]
6.7 nM	7.1 nM	8.2 nM	–	–	–	–	Cc1[nH]c(-c2nnn(CCO)n2)c(Br)c1C(=O)c1cccc(Br)c1 [Compound 288, (4-bromo-5-(2-(2-hydroxyethyl)-2H-tetrazol-5-yl)-2-methyl-1H-pyrrol-3-yl)(3-bromophenyl)methanone]
34.5 nM	36.9 nM	47 nM	–	–	–	–	COc1ccc(C(=O)c2c(CCl)[nH]c(-c3nnn(CCOC(C)=O)n3)c2C)cc1Br [Compound 172, 2-(5-(4-(3-bromo-4-methoxybenzoyl)-5-(chloromethyl)-3-methyl-1H-pyrrol-2-yl)-2H-tetrazol-2-yl)ethyl acetate]
167 nM	162 nM	225 nM	–	–	–	–	COc1ccc(C(=O)c2c(/C=N/O)[nH]c(-c3nnn(CCOC(C)=O)n3)c2C)cc1Br [Compound 169, (E)-2-(5-(4-(3-bromo-4-methoxybenzoyl)-5-((hydroxyimino)methyl)-3-methyl-1H-pyrrol-2-yl)-2H-tetrazol-2-yl)ethyl acetate]
42.6 nM	145 nM	50.1 nM	–	–	–	–	Cc1c(-c2nnn(CCO)n2)[nH]c(C(F)F)c1C(=O)c1cccc(Br)c1 [Compound 119, (3-bromophenyl)(2-(difluoromethyl)-5-(2-(2-hydroxyethyl)-2H-tetrazol-5-yl)-4-methyl-1H-pyrrol-3-yl)methanone]
315 nM	754 nM	525 nM	–	–	–	–	CNC(=O)c1[nH]c(-c2nnn(CCN)n2)c(C)c1C(=O)c1cccc(Br)c1 [Compound 282, 5-(2-(2-aminoethyl)-2H-tetrazol-5-yl)-3-(3-bromobenzoyl)-N,4-dimethyl-1H-pyrrole-2-carboxamide]
42.1 nM	118 nM	83 nM	–	–	–	–	Cc1c(-c2nnn(CCO)n2)[nH]c(C=O)c1C(=O)c1cccc(Br)c1 [Compound 117, 3-(3-bromobenzoyl)-5-(2-(2-hydroxyethyl)-2H-tetrazol-5-yl)-4-methyl-1H-pyrrole-2-carboaldehyde]
460 nM	957 nM	509 nM	–	–	–	–	CNC(=O)c1[nH]c(-c2nnn(CCOC(C)=O)n2)c(C)c1C(=O)c1ccc(OC)c(Br)c1 [Compound 295, 2-(5-(4-(3-bromo-4-methoxybenzoyl)-3-methyl-5-(methylcarbamoyl)-1H-pyrrol-2-yl)-2H-tetrazol-2-yl)ethyl acetate]
168 nM	231 nM	469 nM	–	–	–	–	CCc1nnc(-c2c(C)c(C(=O)c3cccc(Br)c3)c(C)n2CCO)o1 [Compound 236, (3-bromophenyl) (1-(2-hydroxyethyl)-2,4-dimethyl-5-(5-ethyl-1,3,4-oxadiazol-2-yl)-1H-pyrrol-3-yl)methanone]
102 nM	55.3 nM	191 nM	–	–	–	–	CCc1nnc(-c2[nH]c(C)c(C(=O)c3ccc(OCCN)c(Br)c3)c2C)o1 [Compound 251, (4-(2-aminoethoxy)-3-bromophenyl)(5-(5-ethyl-1,3,4-oxadiazol-2-yl)-2,4-dimethyl-1H-pyrrol-3-yl)methanone]
0.3 nM	0.6 nM	1.9 nM	–	–	–	–	CCc1nnc(-c2c(C)c(C(=O)c3cccc(Br)c3)c(C)n2C(=O)c2ccccc2)o1 [Compound 237, (1-benzoyl-5-(5-ethyl-1,3,4-oxadiazol-2-yl)-2,4-dimethyl-1H-pyrrol-3-yl) (3-bromophenyl)methanone]
232 nM	219 nM	306 nM	–	–	–	–	CNC(=O)c1[nH]c(-c2nnn(CCO)n2)c(C)c1C(=O)c1ccc(OC)c(Br)c1 [Compound 149, 3-(3-bromo-4-methoxybenzoyl)-5-(2-(2-hydroxyethyl)-2H-tetrazol-5-yl)-N,4-dimethyl-1H-pyrrole-2-carboxamide]
42.5 nM	41 nM	49.2 nM	–	–	–	–	Cc1[nH]c(-c2nnn(CCO)n2)c(C)c1C(=O)c1cccc(C2CC2)c1 [Compound 115, (3-cyclopropylphenyl)(5-(2-(2-hydroxyethyl)-2H-tetrazol-5-yl)-2,4-dimethyl-1H-pyrrol-3-yl)methanone]
28.1 nM	46.9 nM	231 nM	–	–	–	–	CCc1nnc(-c2c(C)c(C(=O)c3cccc(Br)c3)c(C)n2C)o1 [Compound 223, (3-bromophenyl) (5-(5-ethyl-1,3,4-oxadiazol-2-yl)-1,2,4-trimethyl-1H-pyrrol-3-yl)methanone]
1.3 nM	1.7 nM	1.8 nM	–	–	–	–	CCc1nnc(-c2c(C)c(C(=O)c3cccc(Br)c3)c(C)n2C(C)=O)o1 [Compound 224, 1-(3-(3-bromobenzoyl)-5-(5-ethyl-1,3,4-oxadiazol-2-yl)-2,4-dimethyl-1H-pyrrol-1-yl)ethanone]
–	–	–	–	8.2 nM	7.3 nM	12.2 nM	Cc1[nH]c(-c2nnn(CCOC(=O)CN)n2)c(C)c1C(=O)c1cccc(Br)c1 [Compound 297, 2-(5-(4-(3-bromobenzoyl)-3,5-dimethyl-1H-pyrrol-2-yl)-2H-tetrazol-2-yl)ethyl 2-aminoacetate hydrochloride]
670 nM	506 nM	886 nM	–	–	–	–	Cc1[nH]c(-c2nnn(CCO)n2)c(C)c1C(=O)c1ccc(OCCN)c(Br)c1 [Compound 168, (4-(2-aminoethoxy)-3-bromophenyl)(5-(2-(2-hydroxyethyl)-2H-tetrazol-5-yl)-2,4-dimethyl-1H-pyrrol-3-yl)methanone]
123 nM	184 nM	167 nM	–	–	–	–	Cc1[nH]c(-c2nnn(CCN)n2)c(Br)c1C(=O)c1cccc(Br)c1 [Compound 290, (5-(2-(2-aminoethyl)-2H-tetrazol-5-yl)-4-bromo-2-methyl-1H-pyrrol-3-yl)(3-bromophenyl)methanone]
41.7 nM	64.1 nM	289 nM	–	–	–	–	Cc1[nH]c(-c2nnc(C(F)F)o2)c(C)c1C(=O)c1cccc(Br)c1 [Compound 186, (3-bromophenyl)(5-(5-(difluoromethyl)-1,3,4-oxadiazol-2-yl)-2,4-dimethyl-1H-pyrrol-3-yl)methanone]
290 nM	447 nM	555 nM	–	–	–	–	CCc1nnc(-c2c(C)c(C(=O)c3cccc(Br)c3)c(C)n2S(=O)(=O)C2CC2)o1 [Compound 227, (3-bromophenyl) (1-(cyclopropylsulfonyl)-5-(5-ethyl-1,3,4-oxadiazol-2-yl)-2,4-dimethyl-1H-pyrrol-3-yl)methanone]

— patent publication US20140343017A1, “PYRROLE COMPOUND” (Kabushiki Kaisha Yakult Honsha, priority 2012, published 2014)
